In ChEMBL document CHEMBL1201862, “PubChem BioAssay data set” (2004):
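48-hour exposure; five concentrations; linearly interpolated endpoints. The concentration for 50% growth inhibition is given as GI50.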 Active and inactive are the calls of the source. Cut-off read from the data, not from the text of the source: active = GI50 up to about 1.1 µM and inactive = higher.

Experiments:
Assay in all cases: NCI anticancer screen, dose series, 48 h
SK-MEL-5 = system: SK-MEL-5
A498 = system: A498
SF-268 = system: SF-268
U-251 = system: U-251
EKVX = system: EKVX
UACC-257 = system: UACC-257
MOLT-4 = system: MOLT-4
MCF7 = system: MCF7
OVCAR-8 = system: OVCAR-8
ACHN = system: ACHN
SF-295 = system: SF-295
SNB-75 = system: SNB-75
MDA-MB-435 = system: MDA-MB-435
NCI-H460 = system: NCI-H460
MDA-MB-231 = system: MDA-MB-231
DU-145 = system: DU-145
HCT-116 = system: HCT-116
RXF 393 = system: RXF 393
SF-539 = system: SF-539
MDA-N = system: MDA-N

Row | Structure (SMILES) | GI50 (SK-MEL-5) | GI50 (A498) | GI50 (SF-268) | GI50 (U-251) | GI50 (EKVX) | GI50 (UACC-257) | GI50 (MOLT-4) | GI50 (MCF7) | GI50 (OVCAR-8) | GI50 (ACHN) | GI50 (SF-295) | GI50 (SNB-75) | GI50 (MDA-MB-435) | GI50 (NCI-H460) | GI50 (MDA-MB-231) | GI50 (DU-145) | GI50 (HCT-116) | GI50 (RXF 393) | GI50 (SF-539) | GI50 (MDA-N)
1 | CN(C)C(=O)C(F)(F)C(c1ccc(F)cc1)C1C(=O)N(C)C(=O)N(C)C1=O (configuration not stated) | > 100 µM (inactive) | > 100 µM (inactive) | > 100 µM (inactive) | > 100 µM (inactive) | > 100 µM (inactive) | > 100 µM (inactive) | > 100 µM (inactive) | > 100 µM (inactive) | > 100 µM (inactive) | > 100 µM (inactive) | > 100 µM (inactive) | > 100 µM (inactive) | > 100 µM (inactive) | > 100 µM (inactive) | > 100 µM (inactive) | > 100 µM (inactive) | > 100 µM (inactive) | > 100 µM (inactive) |  | 
2 | O=C(OCc1ccccc1CN1CCOCC1)c1cccc(Br)c1 | 17.7 µM (inactive) | > 100 µM (inactive) | 62.8 µM (inactive) | 47.6 µM (inactive) | 34.5 µM (inactive) | 24.6 µM (inactive) | < 0.01 µM (active) | 37 µM (inactive) | 44.5 µM (inactive) | 63.1 µM (inactive) |  | 31.2 µM (inactive) | > 100 µM (inactive) | 83.8 µM (inactive) | 33.7 µM (inactive) | 71 µM (inactive) | 32.9 µM (inactive) | 78.7 µM (inactive) | 43.6 µM (inactive) | 
3 | C[C@@H]1CC[C@]2(C(=O)O)CC[C@]3(C)C(=CC[C@@H]4[C@@]5(C)CC[C@H](O)C(C)(C)[C@@H]5CC[C@]43C)[C@@H]2[C@]1(C)O [POMOLIC ACID] |  | 19 µM (inactive) | 17.1 µM (inactive) | 14.1 µM (inactive) | 18.3 µM (inactive) | 5.42 µM (inactive) | 4.86 µM (inactive) | 20 µM (inactive) | 20.2 µM (inactive) | 16.5 µM (inactive) | 3.22 µM (inactive) | 13.5 µM (inactive) | 15.5 µM (inactive) | 5.41 µM (inactive) | 8.79 µM (inactive) | 8.97 µM (inactive) | 12.2 µM (inactive) |  | 3.25 µM (inactive) | 
4 | O=C1c2ccccc2C(=O)c2c1nc1ccccc1c2-c1cncc(-c2c3c(nc4ccccc24)C(=O)c2ccccc2C3=O)c1 | 1.29 µM (inactive) | 9.18 µM (inactive) | 6.08 µM (inactive) | 8 µM (inactive) | 3.85 µM (inactive) | 8.63 µM (inactive) | 0.418 µM (active) | 5.19 µM (inactive) | 1.52 µM (inactive) | 4.08 µM (inactive) | 8.32 µM (inactive) | 5.69 µM (inactive) | 1.83 µM (inactive) | 2.43 µM (inactive) | 9.31 µM (inactive) | 4.09 µM (inactive) | 4.17 µM (inactive) | 12.1 µM (inactive) | 6.46 µM (inactive) | 
5 | CCOC(=O)c1c(C)[nH]c2c1c(CN(C)C)c(O)c1nc(C)c(C)nc12 | 15 µM (inactive) | 15.2 µM (inactive) | 27.3 µM (inactive) | 24.3 µM (inactive) | 27.3 µM (inactive) | 23.5 µM (inactive) | 16 µM (inactive) | 17.9 µM (inactive) | 21.4 µM (inactive) | 20.5 µM (inactive) | 20.2 µM (inactive) | 23.3 µM (inactive) | 25.6 µM (inactive) | 18.4 µM (inactive) |  | 26.2 µM (inactive) | 17.2 µM (inactive) | 20.8 µM (inactive) | 18 µM (inactive) | 19.2 µM (inactive)
6 | CCCCCCCCCCCCCCCCCC(=O)Nc1ccn(C2CCC(COP(=O)(O)O)O2)c(=O)n1 (configuration not stated) | > 100 µM (inactive) | > 100 µM (inactive) | > 100 µM (inactive) | > 100 µM (inactive) | > 100 µM (inactive) | > 100 µM (inactive) | > 100 µM (inactive) | > 100 µM (inactive) | > 100 µM (inactive) | > 100 µM (inactive) | > 100 µM (inactive) | > 100 µM (inactive) | > 100 µM (inactive) |  | > 100 µM (inactive) | > 100 µM (inactive) | > 100 µM (inactive) | > 100 µM (inactive) | > 100 µM (inactive) | 
7 | Cc1cc2cc3ccccc3cc2c(=O)[nH]1 |  |  | > 10 µM (inactive) | > 10 µM (inactive) | > 10 µM (inactive) | > 10 µM (inactive) | > 10 µM (inactive) | > 10 µM (inactive) | > 10 µM (inactive) | > 10 µM (inactive) | > 10 µM (inactive) | > 10 µM (inactive) | > 10 µM (inactive) | > 10 µM (inactive) |  | > 10 µM (inactive) | > 10 µM (inactive) | > 10 µM (inactive) | > 10 µM (inactive) | > 10 µM (inactive)
8 | COc1c(OC2OC(CO)C(O)C(O)C2O)cc2c(c1OC)-c1ccc(OC)c(=O)cc1C(NC(C)=O)CC2 (configuration not stated) | 35.4 µM (inactive) | > 100 µM (inactive) | > 100 µM (inactive) | > 100 µM (inactive) | > 100 µM (inactive) | > 100 µM (inactive) | > 100 µM (inactive) |  | > 100 µM (inactive) | > 100 µM (inactive) | > 87.3 µM (inactive) | 25.3 µM (inactive) |  | > 100 µM (inactive) |  |  | > 100 µM (inactive) | > 83.6 µM (inactive) | > 100 µM (inactive) | 
9 | Cc1c(C(=O)C/C(=N/NC(=O)C[n+]2ccccc2)C(=O)Nc2ccccc2)[n+]([O-])c2ccccc2[n+]1[O-] | > 100 µM (inactive) | > 100 µM (inactive) | > 100 µM (inactive) | > 100 µM (inactive) | > 100 µM (inactive) | > 100 µM (inactive) | > 100 µM (inactive) |  | > 100 µM (inactive) | > 100 µM (inactive) | > 100 µM (inactive) | > 100 µM (inactive) |  | > 100 µM (inactive) |  |  | > 100 µM (inactive) | > 100 µM (inactive) | > 100 µM (inactive) | 
10 | C=C1CC(CCCl)(c2ccccc2)OC1=O (configuration not stated) | > 100 µM (inactive) | > 100 µM (inactive) | > 67 µM (inactive) | > 59.3 µM (inactive) | > 44 µM (inactive) | 44.2 µM (inactive) | 21.1 µM (inactive) |  | 41.1 µM (inactive) | 32.5 µM (inactive) | > 100 µM (inactive) | 22.4 µM (inactive) |  | > 100 µM (inactive) |  |  | 22.9 µM (inactive) | 13.3 µM (inactive) | 27.9 µM (inactive) | 
11 | Cc1n2nc(N)sc2n[n+]1CC(=O)c1ccccc1 | > 100 µM (inactive) | > 100 µM (inactive) | > 100 µM (inactive) | > 100 µM (inactive) | > 100 µM (inactive) | > 100 µM (inactive) | > 100 µM (inactive) | > 100 µM (inactive) | > 100 µM (inactive) | > 100 µM (inactive) | > 100 µM (inactive) | > 100 µM (inactive) | > 100 µM (inactive) | > 100 µM (inactive) |  | > 100 µM (inactive) | > 100 µM (inactive) | > 100 µM (inactive) | > 100 µM (inactive) | > 100 µM (inactive)
12 | NCCSC1(O)C(=O)c2ccccc2-c2ccccc21 (configuration not stated) | 0.265 µM (active) |  | 1.5 µM (inactive) | 0.713 µM (active) | 1.66 µM (inactive) | 0.435 µM (active) | 0.181 µM (active) | 1.83 µM (inactive) | 0.262 µM (active) | 1.05 µM (active) | < 0.01 µM (active) | 0.553 µM (active) | < 0.01 µM (active) | 1.78 µM (inactive) | 0.483 µM (active) | 1.06 µM (active) | 0.176 µM (active) | 1.64 µM (inactive) | 1.15 µM (inactive) | 
13 | CSCC(COC(C)=O)(CSC)c1ccncc1 | 53.6 µM (inactive) | > 100 µM (inactive) | > 100 µM (inactive) | > 100 µM (inactive) | > 100 µM (inactive) | > 100 µM (inactive) | > 100 µM (inactive) |  | > 100 µM (inactive) | > 100 µM (inactive) | > 100 µM (inactive) | 85.7 µM (inactive) |  | > 100 µM (inactive) |  |  | > 100 µM (inactive) | > 100 µM (inactive) | > 100 µM (inactive) | 
14 | CCCCCC(=O)N[C@H]1CCc2cc(O)c(O)c(O)c2-c2ccc(SC)c(=O)cc21 | 28.4 µM (inactive) | 29 µM (inactive) | 38.7 µM (inactive) | 27.9 µM (inactive) | > 63.1 µM (inactive) | 37.5 µM (inactive) | 27.8 µM (inactive) |  | 26.1 µM (inactive) | > 100 µM (inactive) | 23.4 µM (inactive) | 32.2 µM (inactive) |  | 38.4 µM (inactive) |  |  | 18.8 µM (inactive) | 38.9 µM (inactive) | 20.9 µM (inactive) | 
15 | CCCCCCCCCCCCc1ccsc1-c1ccc(-c2ccc(-c3sc(-c4cc(CCCCCCCCCCCC)c(-c5ccc(-c6ccc(-c7sccc7CCCCCCCCCCCC)s6)s5)s4)cc3CCCCCCCCCCCC)s2)s1 | > 100 µM (inactive) | > 100 µM (inactive) | > 100 µM (inactive) | > 100 µM (inactive) | > 100 µM (inactive) | > 100 µM (inactive) | > 100 µM (inactive) | > 100 µM (inactive) | > 100 µM (inactive) | > 100 µM (inactive) | > 100 µM (inactive) | > 100 µM (inactive) | > 100 µM (inactive) | > 100 µM (inactive) | > 100 µM (inactive) | > 100 µM (inactive) | > 100 µM (inactive) | 83.4 µM (inactive) | > 100 µM (inactive) | 
